In assay [1] the target is T1, proteasome (Rattus norvegicus, UniProt P28075).
T1 construct: endogenous in cells; host or cells: rat PC12 clonal lines (empty vector, or stably expressing human wild-type or A53T alpha-synuclein)
T1 sequence (P28075 60-263): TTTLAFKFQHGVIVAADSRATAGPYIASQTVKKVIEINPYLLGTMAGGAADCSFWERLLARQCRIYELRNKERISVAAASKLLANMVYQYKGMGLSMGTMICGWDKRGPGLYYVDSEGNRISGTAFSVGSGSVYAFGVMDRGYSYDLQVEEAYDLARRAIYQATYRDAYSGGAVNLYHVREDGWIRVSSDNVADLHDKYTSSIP
In words: Assay for chymotrypsin-like activity of the proteasome in PC12 cell lysates (LLVY-AFC substrate). The assay is classed as cell-based. The conditions noted are these: cells treated overnight with 0.5 μM inhibitor; lysate assayed with 100 μM LLVY-AFC, 37° C., 10 min. The procedure:
Cells from the different lines were triturated off the dish, centrifuged, and washed in PBS. The resulting pellets were resuspended in 200-500 μl of lysis buffer (10 mM Tris-HCl, pH 7.8, with 1 mM ATP, and 10% glycerol) (Figueiredo-Pereira et al., A new inhibitor of the chymotrypsin-like activity of the multicatalytic proteinase complex (20S proteasome) induces accumulation of ubiquitin-protein conjugates in a neuronal cell. J. Neurochem., 63:1578-1581, 1994). The cells were left for 20 min on ice and then lysed with 30 strokes of a Dounce homogenizer. The lysates were then centrifuged at 10,000×g for 10 min. Fifty micrograms of protein of the resulting supernatants was included in an assay buffer of 100 mM Tris-HCl, pH 8.0, 2 mM CaCl2, 1 mM ATP, and a 100 μM concentration of the fluorogenic substrate LLVY-7-amino-4-trifluoromethyl coumarin (AFC) (Enzyme Systems Products, Livermore, Calif.) in a total final volume of 1 ml. The assay was performed at 37° C. for 10 min (Figueiredo-Pereira et al., 1994, supra). The activity was then measured in a SLM 8000 fluorometer, with assay buffer without lysate as blank. The activity was linear with respect to the amount of protein (in the range of 25-200 μg of protein).

The test system of assay [2] is PC12 cell lines expressing A53T mutant α-synuclein. The assay can be described thus: Trypan blue assay of cell death in mutant A53T α-synuclein PC12 lines. The settings on record: 50 μM, data not shown. The assay is classed as cell-based, rat. The procedure: The day before the trypan blue assay, subconfluent cultures were rinsed twice with complete medium to remove cells at late stages of degeneration. The following day the cells were triturated off the dish and five drops of the cellular suspension were added in a tube together with five drops of Trypan blue solution (0.4%; Sigma-Aldrich, St. Louis, Mo.). After light mixing, the cells were placed on a glass slide, coverslipped, and visualized under 20× magnification. For each line, three fields of 100 cells each were assessed for the percentage of Trypan blue-positive cells. The results reported are the mean±SEM (n=3).
To test for potential involvement of caspases in cellular degeneration associated with expression of A53T α-synuclein, control, wild-type, and mutant lines were examined for basal caspase-3-like activity, as measured by cleavage of the fluorogenic substrate DEVD-AFC (15 μM; Enzyme Systems Products, Livermore, Calif.). No difference was found in basal activity among cell lines (data not shown). […] It can be concluded that PC12 cell lines expressing A53T mutant α-synuclein display enhanced cellular degeneration that appears nonapoptotic by morphological and biochemical criteria.

Where a SMILES comes first, the peptide text is derived from it. The star is where a group is joined. Cbz = O=C(OCc1ccccc1)* A value given as a limit tells only on which side of the number the result lay.

For `CC(C)C[C@@H](C=O)NC(=O)[C@H](CC(C)C)NC(=O)[C@H](CC(C)C)NC(=O)OCc1ccccc1` [MG132] (Cbz-Leu-Leu-Leu-aldehyde), the “chymotrypsin-like proteasomal activity remaining in lysates of treated cells” value in assay [1] is recorded as less than 5%. Take Boc-aspartate-fluoromethyl ketone: the “effect on percentage of Trypan blue-positive cells” value in assay [2] is listed as “did not affect”.

The values above are taken from patent publication US20040197315A1, “Dopaminergic cell lines stably expressing A53T alpha-synuclein and methods of using same” (priority 2002, published 2004).
